Results reported in US5266707A, “3,5-dihydroxyheptanoic acid derivatives” (Fujirebio Inc., priority 1991, dated 1993).
pIC50: −log10 of the molar value. Read-outs that look alike come from different tables or passages of the source.

Key:
[1] = system: total serum cholesterol in model rats with Triton-induced hyperlipemia; assay: Measurement of Reduction in Cholesterol Value (total serum cholesterol, Triton-induced hyperlipemia model rats); assay type: in vivo, rat; details: value of Compactin (ML-236B) as reference (100)
HMG-CoA Reductase = molecular target: T1, HMG-CoA Reductase (Rattus norvegicus, UniProt P51639); assay: Measurement of Inhibitory Activity on HMG-CoA Reductase (activity ratio of biosynthesis of cholesterol); assay type: biochemical
T1 construct: from tissue
T1 sequence (P51639 1-887): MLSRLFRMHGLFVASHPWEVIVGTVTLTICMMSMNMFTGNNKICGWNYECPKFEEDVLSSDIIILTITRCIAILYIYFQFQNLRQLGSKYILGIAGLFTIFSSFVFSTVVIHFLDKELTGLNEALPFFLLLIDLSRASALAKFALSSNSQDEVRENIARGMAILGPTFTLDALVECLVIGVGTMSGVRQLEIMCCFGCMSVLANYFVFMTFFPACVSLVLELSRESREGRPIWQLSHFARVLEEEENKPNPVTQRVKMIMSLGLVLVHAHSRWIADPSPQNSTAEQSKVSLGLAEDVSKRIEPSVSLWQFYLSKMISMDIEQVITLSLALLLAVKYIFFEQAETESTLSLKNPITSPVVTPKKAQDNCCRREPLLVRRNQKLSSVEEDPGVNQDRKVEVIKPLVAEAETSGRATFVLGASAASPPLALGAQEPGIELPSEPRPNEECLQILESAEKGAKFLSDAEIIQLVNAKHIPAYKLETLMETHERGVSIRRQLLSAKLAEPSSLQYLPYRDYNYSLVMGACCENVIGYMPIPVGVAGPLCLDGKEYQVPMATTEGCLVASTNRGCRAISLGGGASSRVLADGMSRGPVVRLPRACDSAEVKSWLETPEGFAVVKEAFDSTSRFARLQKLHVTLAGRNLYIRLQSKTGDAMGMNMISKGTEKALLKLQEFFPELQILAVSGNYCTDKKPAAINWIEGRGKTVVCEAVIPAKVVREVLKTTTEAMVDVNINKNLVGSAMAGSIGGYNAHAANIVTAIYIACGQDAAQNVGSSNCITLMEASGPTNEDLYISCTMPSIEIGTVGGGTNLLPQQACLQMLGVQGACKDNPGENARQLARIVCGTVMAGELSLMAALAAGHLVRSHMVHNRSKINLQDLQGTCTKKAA

[2] = system: automatic TBARS reproduction of the rat brain homogenate; assay: Measurement of Anti-oxidation Function (inhibition of automatic TBARS reproduction of rat brain homogenate); assay type: biochemical; details: inhibition of TBARS in rat brain homogenate
[3] = Relative value when the value of Compactin is 100

Activity ratio of Biosynthesis of Cholesterol, Reactive Inhibitory Potency (HMG-CoA Reductase; [3])	Structure (SMILES)	Reduction of Cholesterol Value [1]	pIC50 [2]	Activity ratio of Biosynthesis of Cholesterol, Reactive Inhibitory Potency (HMG-CoA Reductase)
1550	Cc1c(CCC(O)CC(O)CC(=O)O)c2c(c(C)c1-n1cc3ccccc3c1)CC(C)(C)O2 (racemic) [Compound No. 94, sodium 7-[2,3-dihydro-5-isoindolyl-2,2,4,6-tetramethylbenzo[b]furan-7-yl]-3,5-dihydroxyheptanoate]	–	–	–
250	Cc1c(CC[C@@H]2C[C@@H](O)CC(=O)O2)c2c(c(C)c1-n1cc3ccccc3c1)CC(C)(C)O2 (relative stereo) [Compound No. 14, trans-(±)-6-[2,3-dihydro-5-isoindolyl-2,2,4,6-tetramethylbenzo[b]furan-7-yl]ethyl-4-hydroxytetrahydropyran-2-one]	–	–	–
170	Cc1c2c(c(CC[C@H]3C[C@H](O)CC(=O)O3)c(C(C)C)c1NCc1ccccc1)OC(C)(C)C2 (racemic) [Compound No. 43, trans-(±)-6-[5-benzylamino-2,3-dihydro-2,2,4-trimethyl-6-(propan-2-yl)benzo[b]furan-7-yl]ethyl-4-hydroxytetrahydropyran-2-one]	–	–	–
250	Cc1c(CC[C@H]2C[C@H](O)CC(=O)O2)c2c(c(C)c1N1Cc3ccccc3C1)CC(C)(C)O2 (racemic) [Compound No. 13, trans-(±)-6-[2,3-dihydro-5-(isoindolin-2-yl)-2,2,4,6-tetramethylbenzo[b]furan-7-yl]ethyl-4-hydroxytetrahydropyran-2-one]	180	5.84	–

Continued, molecule first:

Structure (SMILES)	Activity ratio of Biosynthesis of Cholesterol, Reactive Inhibitory Potency (HMG-CoA Reductase; [3])	Reduction of Cholesterol Value [1]	pIC50 [2]	Activity ratio of Biosynthesis of Cholesterol, Reactive Inhibitory Potency (HMG-CoA Reductase)
CC[C@H](C)C(=O)O[C@H]1CCC=C2C=C[C@H](C)[C@H](CC[C@@H]3C[C@@H](O)CC(=O)O3)[C@H]21 [Compactin, reference compound]	–	100	–	–
Cc1c(CC[C@H]2C[C@H](O)CC(=O)O2)c2c(c(C)c1N1CCCC1)CC(C)(C)O2 (racemic) [Compound No. 17, trans-(±)-6-[2,3-dihydro-2,2,4,6-tetramethyl-5-(pyrrolidin-1-yl)benzo[b]furan-7-yl]ethyl-4-hydroxytetrahydropyran-2-one]	–	–	5.83	–
CC1(C)Cc2cc(N3Cc4ccccc4C3)c(C(C)(C)C)c(CCC(O)CC(O)CC(=O)O)c2O1 (stereo not shown) [Compound No. 93, sodium 7-[6-(t-butyl)-2,3-dihydro-5-(isoindolin-2-yl)-2,2-dimethylbenzo[b]furan-7-yl]-3,5-dihydroxyheptanoate]	–	–	5.70	–
Cc1c(N)c(C)c2c(c1CC[C@H]1C[C@H](O)CC(=O)O1)OC(C)(C)C2 (racemic) [Compound No. 10, trans-(±)-6-[5-amino-2,3-dihydro-2,2,4,6-tetramethylbenzo[b]furan-7-yl]ethyl-4-hydroxytetrahydropyran-2-one]	–	–	5.56	–
Cc1c(CCC(O)CC(O)CC(=O)[O-])c2c(c(C)c1N1Cc3ccccc3C1)CC(C)(C)O2.[Na+] (stereo not shown) [Compound No. 15, sodium 7-[2,3-dihydro-5-(isoindolin-2-yl)-2,2,4,6-tetramethylbenzo[b]furan-7-yl]-3,5-dihydroxyheptanoate]	–	320	5.78	830
Cc1c(CC[C@H]2C[C@H](O)CC(=O)O2)c2c(c(C)c1N1CCc3ccccc3C1)CC(C)(C)O2 (racemic) [Compound No. 24, trans-(±)-6-[2,3-dihydro-5-(1,2,3,4-tetrahydroisoquinolin-2-yl)-2,2,4,6-tetramethylbenzo[b]furan-7-yl]ethyl-4-hydroxytetrahydropyran-2-one]	–	–	5.79	–
CC(C)c1c(N2Cc3ccccc3C2)cc2c(c1CCC(O)CC(O)CC(=O)[O-])OC(C)(C)C2.[Na+] (stereo not shown) [Compound No. 76, sodium 7-[2,3-dihydro-5-(isoindolin-2-yl)-2,2-dimethyl-6-(propan-2-yl)benzo[b]furan-7-yl]-3,5-dihydroxyheptanoate]	–	–	5.19	2730
Cc1c(CCC(O)CC(O)CC(=O)O)c2c(c(C)c1N1Cc3ccccc3C1)CC(C)(C)O2 (stereo not shown) [Compound No. 12, 7-[2,3-dihydro-5-(isoindolin-2-yl)-2,2,4,6-tetramethylbenzo[b]furan-7-yl]3,5-dihydroxyheptoic acid]	1500	330	5.80	–
